# From patent publication US20250163119A1, “COMPOUNDS FOR THE TREATMENT OF DIABETES OR OBESITY” (Eli Lilly and Company, priority 2023, published 2025)
# *1 amine or outer side, *2 acyl side, *3 side chain or, on linkers, in order; H or OH if unused. Where a SMILES comes first, the peptide text is derived from it. Side-chain parts run from the residue outwards. [ ]: non-standard residue; d: D form. The star is where a group is joined. C20 diacid = O=C(O)CCCCCCCCCCCCCCCCCCC(=O)*; γGlu = O=C(O)[C@H](CCC(=O)[*:2])N[*:1]; NMeI = CC[C@H](C)[C@H](NC)C(=O)O; αMeL = CC(C)C[C@](C)(N)C(=O)O; AEEA = NCCOCCOCC(=O)O
# Columns and labels:
# [1] = target: T1, CRHR1 receptor (Y79 cells) (Homo sapiens, UniProt P34998); assay: Human Y79 cAMP assay (native cell line expressing endogenous CRHR1); type: cell-based; conditions: human Y79 cells (CRHR1, no detectable CRHR2); mean ± SE
# T1 construct: host or cells: Y79 human retinoblastoma cells
# T1 sequence (P34998 24-415): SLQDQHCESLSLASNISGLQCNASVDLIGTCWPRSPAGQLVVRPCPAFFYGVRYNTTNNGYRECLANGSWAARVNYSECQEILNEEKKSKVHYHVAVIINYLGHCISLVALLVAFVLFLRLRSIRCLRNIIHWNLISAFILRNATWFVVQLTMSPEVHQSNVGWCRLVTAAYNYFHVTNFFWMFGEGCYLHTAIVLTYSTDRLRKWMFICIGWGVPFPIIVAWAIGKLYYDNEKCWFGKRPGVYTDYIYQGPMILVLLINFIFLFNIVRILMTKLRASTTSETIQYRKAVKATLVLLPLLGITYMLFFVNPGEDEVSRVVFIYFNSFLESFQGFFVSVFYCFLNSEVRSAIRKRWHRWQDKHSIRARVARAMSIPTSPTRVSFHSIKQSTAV
# Procedure: Y79 cells, a human retinoblastoma cell line, express a high level of human CRHR1 with no detectable CRHR2. A7r5 cells, a rat aortic smooth muscle cell line, only express CRHR2 receptor with no detectable CRHR1. The rat CRHR2 gene shares 93% homology of nucleotides sequences with human CRHR2 and responds to human UCN2. Therefore, these two native cell lines were used for additional characterization of polypeptide selectivity.
# Y79 cells were grown in a suspension culture as recommended by ATCC in the media containing RPMI (Gibco Cat #11875093) and 20% FBS (Gibco dialyzed Cat #26400044). Y79 cells were incubated at 37° C. with 5% CO2. A subcultivation was performed by removing the supernatant after centrifugation and suspending the cell pellet in fresh medium (A subcultivation ratio was 1:5). […]
# The amount of intracellular cAMP was quantitated using HTRF technology (Homogeneous Time Resolved Fluorescence; Cisbio) as per vendor instructions. […] The HTRF signal was immediately detected using an Envision plate reader (Perkin-Elmer) to calculate the ratio of fluorescence at 665 to 620 nm. […]
# Raw fluorescence data for concentration curves of the peptides in Table 2 and Table 3 were converted to cAMP amount (pmol/well) using a cAMP standard curve generated for each experiment.
# [2] = In vivo Diet Induced Obesity (DIO) model, chronic dose administration; design: species or system C57BL6 mice; conditions: DIO mice; 30 nmol/kg s.c.; pooled data from four studies; mean
# Excerpt: The DIO model represents a pre-diabetic state that is obese. These animals, although not diabetic, display insulin resistance, dyslipidemia, and hepatic steatosis, all characteristics of metabolic syndrome, after being placed on a high fat (60% Kcal from fat) diet for 12 weeks (Surwit R S et al., Diet-induced type II diabetes in C57BL/6J mice. Diabetes 37(9): 1163-7 (1988)). Assessment of body weight change from start of study, fat mass change from start of study, lean mass change from start of study, and fasting glucose or glucose change from vehicle in same study substantially as set forth below. In the case of SEQ ID NO:55 combined with SEQ ID NO:25, tibialis anterior muscle weight at the end of the study is also reported as a measure of effect on muscle weight.
# Male C57BL6 mice 22-24 weeks old (on high fat diet since 6 weeks of age, Jackson Laboratories 3800050; Bar Harbor, ME) are housed 1 per cage and maintained on D12492 chow (60% lard high fat diet: Research diets New Brunswick NJ) for 2 weeks in the vivarium and on a normal light cycle prior to experiment start. Animals were randomized by body weight to treatment groups using block randomization. On day 1 of experiment animals and food were weighed and recorded. Animals were separated in to two equal groups and started on separate days (data combined) to simplify the logistics of the study. Animals are given a single subcutaneous injection (s.c.) of the indicated treatment in 40 mM Tris HCl pH8.0+50 mM D-mannitol+0.02% polysorbate 80 on days 1(start), 4, 7, 10, and 13 of experiment at a volume of 10 ml/kg. […]
# From study day 1 to study day 14 the animals were weighed daily prior to dose administration. […] The weight was recorded.
# On Study Day 14, the animals were fasted overnight (approximately 16-18 hours) by placing them in a clean cage with a clean wire rack without food but allowed access to water, and on day 15 animals were subjected to fasting blood glucose measurement as follows; the tail of the animal was resected and a blood samples was collected and blood glucose was measured using an Accu-Chek Aviva glucose meter (Roche; Indianapolis, IN). Statistical significance ([…] vs. 0 dose; one way ANOVA Dunnett's post hoc) was calculated using GraphPad Prism software (La Jolla, Ca).
# On study day 1 and study day 14 body composition was analyzed using Quantitative Nuclear Magnetic Resonance EchoMRI analyzer (EMR-166-s, EchoMRI; Houston Tx). […] Change in mass is calculated by subtraction of […].
# On study day 15, following tail bleed for blood glucose, animals were sacrificed by C02 asphyxiation and the right tibialis anterior muscle was dissected. […] Weight was recorded and, in the case of relative weight, Tibialis anterior weight in milligrams was divided by body weight in grams. […]
compound,measurement,setting,value
"CC[C@H](C)[C@H](NC)C(=O)N[C@H](C(=O)N[C@H](C(=O)N[C@@H](CO)C(=O)N[C@@H](CC(C)C)C(=O)N[C@@H](CC(=O)O)C(=O)N[C@H](C(=O)N1CCC[C@H]1C(=O)N[C@H](C(=O)NCC(=O)N[C@@](C)(CC(C)C)C(=O)N[C@@H](CC(C)C)C(=O)N[C@@H](CCC(N)=O)C(=O)N[C@@H](CCCCN)C(=O)N[C@@H](CC(C)C)C(=O)N[C@H](C(=O)N[C@@H](CCC(=O)O)C(=O)N[C@@H](CCC(N)=O)C(=O)N[C@@H](CCC(=O)O)C(=O)N[C@@H](CCCCN)C(=O)N[C@@H](CCC(N)=O)C(=O)N[C@@H](CCC(=O)O)C(=O)N[C@@H](CCCCN)C(=O)N[C@@H](CCC(=O)O)C(=O)N[C@@H](CCCCN)C(=O)N[C@@H](CCC(N)=O)C(=O)N[C@@H](CCC(N)=O)C(=O)N[C@@H](C)C(=O)N[C@@H](CCCCNC(=O)COCCOCCNC(=O)COCCOCCNC(=O)CC[C@H](NC(=O)CCCCCCCCCCCCCCCCCCC(=O)O)C(=O)O)C(=O)N[C@@H](CCC(=O)O)C(=O)N[C@@H](CC(N)=O)C(=O)N[C@H](C(=O)N[C@@H](CCC(=O)O)C(=O)N[C@H](C(=O)N[C@@H](CC(C)C)C(=O)N[C@@H](C)C(=O)N[C@@H](CCC(N)=O)C(=O)N[C@H](C(N)=O)C(C)C)[C@@H](C)CC)[C@@H](C)O)[C@@H](C)CC)[C@@H](C)CC)C(C)C)[C@@H](C)O)C(C)C [SEQ ID NO: 49, (NMeI) VTSLDVPIG αMeL LQKLIEQEKQEKEKQQAK((2-[2-(2-Amino-ethoxy)-ethoxy]-acetyl)2-γE-CO-(CH2)18-CO2H)ENTEILAQV-NH2] (H-[NMeI]VTSLDVPIG[αMeL]LQKLIEQEKQEKEKQQAK([AEEA-AEEA-γGlu-C20 diacid])ENTEILAQV-NH2)",EC50,[1],> 1e+07 pM
CC[C@H](C)[C@H](NC)C(=O)N[C@H](C(=O)N[C@@H](CC(C)C)C(=O)N[C@@H](CO)C(=O)N[C@@H](CC(C)C)C(=O)N[C@@H](CC(=O)O)C(=O)N[C@H](C(=O)N1CCC[C@H]1C(=O)N[C@H](C(=O)NCC(=O)N[C@@H](CC(C)C)C(=O)N[C@@H](CC(C)C)C(=O)N[C@@H](CCC(N)=O)C(=O)N[C@H](C(=O)N[C@@H](CC(C)C)C(=O)N[C@@H](CC(C)C)C(=O)N[C@@H](CCC(=O)O)C(=O)N[C@@H](CCC(N)=O)C(=O)N[C@@H](CCC(=O)O)C(=O)N[C@@H](CCCCN)C(=O)N[C@@H](CCC(N)=O)C(=O)N[C@@H](CCC(=O)O)C(=O)N[C@@H](CCCCN)C(=O)N[C@@H](CCC(=O)O)C(=O)N[C@@H](CCCCN)C(=O)N[C@@H](CCC(N)=O)C(=O)N[C@@H](CCC(N)=O)C(=O)N[C@@H](C)C(=O)N[C@@H](CCCCNC(=O)COCCOCCNC(=O)COCCOCCNC(=O)CC[C@H](NC(=O)CC[C@H](NC(=O)CCCCCCCCCCCCCCCCCCC(=O)O)C(=O)O)C(=O)O)C(=O)N[C@H](C(=O)N[C@@H](CC(N)=O)C(=O)N[C@@H](C)C(=O)N[C@@H](CCC(N)=O)C(=O)N[C@H](C(=O)N[C@@H](CC(C)C)C(=O)N[C@@H](C)C(=O)N[C@@H](CCC(N)=O)C(=O)N[C@H](C(N)=O)C(C)C)[C@@H](C)CC)[C@@H](C)O)[C@@H](C)CC)[C@@H](C)CC)C(C)C)C(C)C [SEQ ID NO: 54] (H-[NMeI]VLSLDVPIGLLQILLEQEKQEKEKQQAK([AEEA-AEEA-γGlu-γGlu-C20 diacid])TNAQILAQV-NH2),Fat mass change,[2],-4.05 g
same,body weight change,[2],-3.75 g
same,fasting blood glucose (% reduction from vehicle),[2],37.01%
same,lean mass change,[2],0.60 g
"CC[C@H](C)[C@H](NC)C(=O)N[C@H](C(=O)N[C@H](C(=O)N[C@@H](CO)C(=O)N[C@@H](CC(C)C)C(=O)N[C@@H](CC(=O)O)C(=O)N[C@H](C(=O)N1CCC[C@H]1C(=O)N[C@H](C(=O)NCC(=O)N[C@@](C)(CC(C)C)C(=O)N[C@@H](CC(C)C)C(=O)N[C@@H](CCC(N)=O)C(=O)N[C@@H](CCCCN)C(=O)N[C@@H](CC(C)C)C(=O)N[C@@H](CC(C)C)C(=O)N[C@@H](CCC(=O)O)C(=O)N[C@@H](CCC(N)=O)C(=O)N[C@@H](CCC(=O)O)C(=O)N[C@@H](CCCNC(=N)N)C(=O)N[C@@H](C)C(=O)N[C@@H](CCC(=O)O)C(=O)N[C@@H](CCCCN)C(=O)N[C@@H](C)C(=O)N[C@@H](CCCNC(=N)N)C(=O)N[C@@H](CCC(N)=O)C(=O)N[C@@H](CCC(N)=O)C(=O)N[C@@H](C)C(=O)N[C@@H](CCCCNC(=O)COCCOCCNC(=O)COCCOCCNC(=O)CC[C@H](NC(=O)CCCCCCCCCCCCCCCCCCC(=O)O)C(=O)O)C(=O)N[C@@H](CCC(=O)O)C(=O)N[C@@H](C)C(=O)N[C@@H](C)C(=O)N[C@@H](CCC(=O)O)C(=O)N[C@H](C(=O)N[C@@H](CC(C)C)C(=O)N[C@@H](C)C(=O)N[C@@H](CCC(N)=O)C(=O)N[C@H](C(N)=O)C(C)C)[C@@H](C)CC)[C@@H](C)CC)C(C)C)[C@@H](C)O)C(C)C [SEQ ID NO: 50, (NMeI) VTSLDVPIG αMeL LQKLLEQERAEKARQQAK((2-[2-(2-Amino-ethoxy)-ethoxy]-acetyl)2-γE-CO-(CH2)18-CO2H)EAAEILAQV-NH2] (H-[NMeI]VTSLDVPIG[αMeL]LQKLLEQERAEKARQQAK([AEEA-AEEA-γGlu-C20 diacid])EAAEILAQV-NH2)",EC50,[1],> 1e+07 pM
